“Also recorded” adds a separate entry of the source.
How the values were obtained:
T cells [1] = test: CD62L expression on T cells cultured with MK-2206; assay type: cell-based, human
Method: Peripheral blood mononuclear cells (PBMC) are a heterogeneous cellular population containing T cells. PBMC were harvested from normal donors and labeled with a fluorescent dye (CellTrace® Violet, Molecular Probes), whose intensity is progressively diluted by a factor of two with each cell division. The labeled PBMCs were used as a source of cells for T cell expansion. […] The impact of MK-2206 on cell division was assayed by evaluating CellTrace Violet dilution with flow cytometry after the addition of 0.025 μM, 0.074 μM, 0.222 μM, 0.67 μM, or 2.0 μM, MK-2206 to the T cultures at day 0. […] A pairwise t test was performed on all day seven cultures; (each concentration of MK-2206 was compared to 0 μM MK-2206: the cultures were not statistically different at the p≤0.05 level). The purpose of this experiment was to determine the effect of Akt inhibitors on T cell markers for T cell potency. The impact of MK-2206 (Selleckchem) on T cell potency was assessed by measuring CD62L expression in the T cell cultures manufactured in Example 1. Mouse models have shown that CD62L expression identifies potent T cells; T cells with greater anti-tumor efficacy after adoptive transfer. […] FIG. 2. A pairwise T test was performed on all day seven cultures (each concentration of MK-2206 was compared to 0 μM MK-2206: *p<0.05, **p<0.01).

anti-BCMA CAR T cells [2] = test: Integrated copies of anti-BCMA CAR (vector copy number) by quantitative PCR; assay type: cell-based, human; details: end of culture, four normal donors, 1×10^8 transducing units lentivirus
Method: (§1) 1×10^8 transducing units of lentivirus encoding anti-BCMA CARs were added one day after culture initiation and at the end of culture, the anti-BCMA CAR T cells were interrogated for genomic integration and cell surface expression of the anti-BCMA CAR.
Integrated copies of the anti-BCMA CAR were assessed by quantitative PCR at the end of culture using primers that detect the vector or the genomic control RNAseP.

anti-BCMA CAR T cells [3] = test: Cell surface expression of anti-BCMA CAR by flow cytometry; assay type: cell-based, human; details: end of culture, four normal donors
Method: as §1
Expression of the anti-BCMA CAR on the surface of T cells was assessed by flow cytometry at the end of culture. Anti-BCMA CAR T cells were specifically identified using recombinant human BCMA-IgG Fc conjugated to PE.

anti-BCMA CAR T cells [4] = test: CD62L expression on anti-BCMA CAR T cells by flow cytometry at end of culture; assay type: cell-based, human
Method: CAR T cells were cultured with either MK-2206 or triciribine phosphate-TCN (AKT inhibitors) or ZSTK474 (PI3K inhibitor). CAR T cells specific for B cell maturation antigen (BCMA) were used in these set of experiments. CAR T cell cultures were performed using a system directly scalable to large clinical manufacturing processes. […] 2×10^8 transducing units of lentivirus encoding anti-BCMA CARs were added one day after culture initiation. […] At the end of culture, the anti-BCMA CAR T cells were interrogated for phenotype.
(§2) Expression of CD62L on anti-BCMA CAR T cells was assessed by flow cytometry at the end of culture. Anti-BCMA CAR T cells were specifically identified using recombinant human BCMA-IgG Fc conjugated to PE. CD62L expression was determined with a co-stain using an antibody specific to CD62L. […] (FIG. 3).
Anti-BCMA CAR T cells cultures were prepared using a system directly scalable to large clinical manufacturing processes. […] 2×10^8 transducing units of lentivirus encoding anti-BCMA CARs were added one day after culture initiation. […] At the end of culture, the anti-BCMA CAR T cells were interrogated for phenotype.
as §2, with “7).” for “3).”

T cells [5] = test: T cell proliferation by CellTrace Violet dilution (flow cytometry); assay type: cell-based, human
Method: Peripheral blood mononuclear cells (PBMC) are a heterogeneous cellular population containing T cells. PBMC were harvested from normal donors and labeled with a fluorescent dye (CellTrace® Violet, Molecular Probes), whose intensity is progressively diluted by a factor of two with each cell division. The labeled PBMCs were used as a source of cells for T cell expansion. […] The impact of MK-2206 on cell division was assayed by evaluating CellTrace Violet dilution with flow cytometry after the addition of 0.025 μM, 0.074 μM, 0.222 μM, 0.67 μM, or 2.0 μM, MK-2206 to the T cultures at day 0. […] A pairwise t test was performed on all day seven cultures; (each concentration of MK-2206 was compared to 0 μM MK-2206: the cultures were not statistically different at the p≤0.05 level).

anti-BCMA CAR T cells [6] = test: CD127, CD197, CD38 co-expression by fluorescence-based flow cytometry; assay type: cell-based; details: seven donors, ten days of culture
Description: The mass cytometry data in Example 8 identified a set of cell surface markers that further characterizes the phenotype of CART cells cultured in the presence of ZSTK474. […] CAR T cells from seven donors cultured in the presence or absence of ZSTK474 were stained with fluorescently labeled antibodies to CD127, CD197, and CD38. […] FIG. 9.

anti-BCMA CAR T cells [7] = test: CD8 expression by flow cytometry; assay type: cell-based, human; details: seven normal donors, IL-2 and ZSTK474
Method: CD8 expression was determined using a fluorescently-labeled anti-CD8 antibody and flow cytometry. […] FIG. 10.

anti-BCMA CAR T cells [8] = test: Tonic (antigen-independent) IFN-γ release by ELISA; assay type: cell-based; details: 14 donors; after ten days of culture; IFN-γ levels below 200 pg/mL represent no tonic activity
Method: Tonic activity of CAR T cells in the absence of antigen has been associated with reduced biological activity. […] Anti-BCMA CAR T cells cultures were prepared using a system directly scalable to large clinical manufacturing processes. […] 2×10^8 transducing units of lentivirus encoding anti-BCMA CARs were added one day after culture initiation. […] At the end of manufacture, an equivalent number of anti-BCMA CAR T cells were re-cultured for 24 hours in media alone. The amount of IFN-γ released in 24 hours was quantified by ELISA. In this assay IFN-γ levels below 200 pg/mL represent no tonic activity.

anti-BCMA CAR T cells [9] = test: Cell surface marker expression by multiparameter mass cytometry (CyTOF); assay type: cell-based
Method: Expression analysis of 29 additional cell surface markers on anti-BCMA CAR T cells cultured with IL-2 and ZSTK474 was performed using multiparameter mass cytometry (CyTOF) and compared with CAR T cells cultured in IL-2 alone.

[10] = Example 3: ten days of culture with IL-2 and optimized dose of inhibitor, three normal donors
[11] = Example 7: ten days of culture with IL-2 and optimized dose of inhibitor, four normal donors

`NC1(c2ccc(-c3nc4ccn5c(=O)[nH]nc5c4cc3-c3ccccc3)cc2)CCC1` [MK-2206] was tested, and the “CD62L expression on T cells vs no treatment control” value (T cells [1]; seven days of culture, all concentrations of MK-2206 tested, in presence of IL-2) was “significantly increases CD62L expression; also recorded: significant higher levels of CD62L expression”, the “CD62L expression on T cells vs no treatment control” value (T cells [1]; three days of culture with MK-2206) was “not substantially different” and the “integrated copies of the anti-BCMA CAR vs IL-2 only” value (anti-BCMA CAR T cells [2]) was “significantly more integrated copies”. The “anti-BCMA CAR expression on the surface of T cells vs IL-2 alone” value (anti-BCMA CAR T cells [3]) was “significantly higher CAR expression”, the “CD62L expression on anti-BCMA CAR T cells vs IL-2 alone” value (shortened to “CD62L expression … vs IL-2 alone”) (anti-BCMA CAR T cells [4]; [10]) was “significantly higher CD62L expression” and the “CD62L expression … vs IL-2 alone” value (anti-BCMA CAR T cells [4]; [11]) was “significantly higher CD62L expression”. For the same compound, the “T cell division / proliferation vs vehicle or non-treated controls” value (T cells [5]; seven days of culture, 0.025-2.0 μM MK-2206, IL-2, pairwise t test p≤0.05) was “no statistically significant differences in T cell division; also recorded: not substantially different” and the “T cell division / proliferation vs no treatment control” value (T cells [5]; three days of culture, 0.025-2.0 μM MK-2206, IL-2, CD3 and CD28 antibodies) was “did not substantially decrease T cell division; also recorded: only slightly decreased”.
`Nc1nc(N)c2nc(-c3cccc(O)c3)cnc2n1` [TG100713] was tested, and the “CD62L expression … vs IL-2 alone” value (anti-BCMA CAR T cells [4]; [11]) was “significantly higher CD62L expression”.
With `FC(F)c1nc2ccccc2n1-c1nc(N2CCOCC2)nc(N2CCOCC2)n1` [ZSTK474] the “anti-BCMA CAR T cells co-expressing CD127, CD197 and CD38 vs IL-2 alone” value (anti-BCMA CAR T cells [6]) was “significant increase; also recorded: increase in the percentage of cells co-expressing CD127, CD197 and CD38”, the “CD8 expression vs IL-2 alone” value (anti-BCMA CAR T cells [7]) was “significantly higher CD8 expression; also recorded: increased percentage of CD8 expressing anti-BCMA CAR T cells” and the “IFN-γ released in 24 hours in media alone (tonic activity)” value (anti-BCMA CAR T cells [8]) was “consistent with lacking tonic activity; also recorded: did not significantly increase”. The “CD62L expression … vs IL-2 alone” value (anti-BCMA CAR T cells [4]; [10]) was “increased CD62L expression; also recorded: significantly higher CD62L expression”, the “CD62L expression … vs IL-2 alone” value (anti-BCMA CAR T cells [4]; [11]) was “significantly higher CD62L expression” and the “percentage of cells co-expressing CD127, CD197 and CD38 vs IL-2 alone (Venn diagrams)” value (anti-BCMA CAR T cells [9]; CD62L positive anti-BCMA T cells, ten days of culture) was “increase in the percentage of cells co-expressing CD127, CD197 and CD38”. For the same compound, the “anti-BCMA CAR T cells co-expressing CD127, CD197 and CD38” value (anti-BCMA CAR T cells [9]; CyTOF, CD62L positive cells, ten days of culture) was 24.5% and the “expression of CD127, CD197 and CD38 vs IL-2 alone” value (anti-BCMA CAR T cells [9]; CyTOF, anti-BCMA CAR T cells cultured with IL-2 and ZSTK474) was “increased expression”.
